Consider two compounds from patent publication US20170348322A1, “BK Channels as Non-Genomic Estrogen Targets for Overactive Bladder” (priority 2016, published 2017).

Experiment [1] concerns the target T1, BK channels (Homo sapiens, UniProt Q12791+Q16558).
T1 construct: Human single DSM cells were enzymatically isolated as previously described; endogenous in cells; host or cells: freshly-isolated human detrusor smooth muscle (DSM) cells from open bladder surgery specimens
As to the kind of experiment: Depolarization-induced steady-state whole cell outward BK currents, amphotericin B-perforated patch-clamp, freshly-isolated DSM cells. The experiment is classed as cell-based. From the text: (§1) DSM single cell isolation: Human single DSM cells were enzymatically isolated as previously described. (Hristov K L, Chen M, Kellett W F, Rovner E S, and Petkov G V. Large-conductance voltage- and Ca2+-activated K+ channels regulate human detrusor smooth muscle function. Am J Physiol Cell Physiol 301: C903-912, 2011; Hristov K L, Parajuli S P, Soder R P, Cheng Q, Rovner E S, and Petkov G V. Suppression of human detrusor smooth muscle excitability and contractility via pharmacological activation of large conductance Ca2+-activated K+ channels. Am J Physiol Cell Physiol 302: C1632-1641, 2012; Parajuli S P, Hristov K L, Cheng Q P, Malysz J, Rovner E S, and Petkov G V. Functional link between muscarinic receptors and large-conductance Ca2+-activated K+ channels in freshly isolated human detrusor smooth muscle cells. Pflugers Arch 467: 665-675, 2015.)
(§2) Patch-clamp electrophysiological experiments: Patch-clamp experiments were performed as previously described. […]
(§3) The current disclosure applied the amphotericin B-perforated whole cell patch-clamp technique to record transient BK currents (TBKCs), depolarization-induced steady-state whole cell BK currents, and the resting membrane potential (RMP) of human freshly-isolated DSM cells. TBKCs in DSM cells were recorded at the holding potential of −20 mV. […] Single BK channel activity was recorded from inside-out excised membrane patches using symmetrical K^+ (140 mM) solutions, at a holding potential of −60 mV (Vh=−60 mV). […]

Experiment [2] addresses T1, BK channels. As to the kind of experiment: Transient BK currents (TBKCs), perforated whole cell patch-clamp, freshly-isolated DSM cells. The format is cell-based. The settings on record: 17β-estradiol 100 nM, holding potential −20 mV.
Description: as §1, with “2015.) […]” for “2015.)”
as §3

For experiment [3], the target named is T1, BK channels. Description: Single BK channel recordings, inside-out excised membrane patches of DSM cells. The settings on record: 17β-estradiol 100 nM, n=9, N=7. The experiment is classed as biochemical. As to the method:
as §2, §3
(§4) Solutions and drugs: Ca^2+-free dissection solution contained (in mM): 80 monosodium glutamate, 55 NaCl, 6 KCl, 10 glucose, 10 HEPES,2 MgCl2, and the pH was adjusted to 7.3 with NaOH. […] Extracellular and patch-pipette solutions for single BK channel recordings contained (in mM): 140 KCl, 1.08 MgCl2, 5 EGTA, 10 HEPES, and 3.16 CaCl2, adjusted to pH 7.2 with NaOH (Ca^2+ free concentration was calculated ˜300 nM with WEBMAXC Standard, http://www.stanford.edu/˜cpatton/webmaxcS.htm, Chris Patton). […]

The subject of another experiment is human DSM cells. Description: Resting membrane potential (RMP) of DSM cells, current-clamp. The format is cell-based. As to the method: as §1, with “Patch-clamp electrophysiological experiments: Patch-clamp experiments” for “DSM single cell isolation: Human single DSM cells”, “performed” for “enzymatically isolated”, “2012; Malysz J, Rovner E S, and Petkov G V. Single-channel biophysical and pharmacological characterizations of native human large-conductance calcium-activated potassium channels in freshly isolated detrusor smooth muscle cells. Pflugers Arch 465: 965-975, 2013;” for “2012;”
The current disclosure applied the amphotericin B-perforated whole cell patch-clamp technique to record transient BK currents (TBKCs), depolarization-induced steady-state whole cell BK currents, and the resting membrane potential (RMP) of human freshly-isolated DSM cells. TBKCs in DSM cells were recorded at the holding potential of −20 mV. Depolarization-induced steady-state whole cell BK currents were elicited by holding the DSM cells at −70 mV and then brief, 200 ms depolarization steps were applied from −40 mV to +80 mV in increments of 20 mV. Single BK channel activity was recorded from inside-out excised membrane patches using symmetrical K^+ (140 mM) solutions, at a holding potential of −60 mV (Vh=−60 mV). The electrochemical driving force for K^+ in these experimental conditions was +60 mV (VDV=60 mV). Paxilline (1 μM), a selective BK channel inhibitor was used to dissect their functional role in mediating 17β-estradiol induced effects on DSM function. All patch-clamp experiments were conducted at room temperature (22-23° C.).
as §4

The subject of experiment [4] is human DSM isolated strips. Description: Isometric tension recordings: spontaneous phasic contractions of DSM isolated strips. The experiment is classed as cell-based. As to the method:
Human DSM specimen collection: The study forming the basis for the current disclosure was conducted according to protocol Pro00045232, reviewed and approved by the Medical University of South Carolina Institutional Review Board. […] The DSM tissue samples were obtained during open bladder surgeries performed for a variety of indications such as bladder cancer, including radical cystectomy for urothelial carcinoma, and adenocarcinoma. In such cases, the collected DSM tissue was remote from the site of tumor. DSM strips were dissected from the bladder specimens, and after removing the urothelial and lamina propria layers, the strips were used for single DSM cell isolation and isometric DSM tension recordings.
(§5) Isometric DSM tension recordings: Isometric DSM tension recordings of human DSM isolated strips (˜7-8 mm long and ˜4-5 mm wide) were conducted as previously described (Hristov K L, Chen M, Kellett W F, Rovner E S, and Petkov G V. Large-conductance voltage- and Ca2+-activated K+ channels regulate human detrusor smooth muscle function. Am J Physiol Cell Physiol 301: C903-912, 2011; Hristov K L, Parajuli S P, Soder R P, Cheng Q, Rovner E S, and Petkov G V. Suppression of human detrusor smooth muscle excitability and contractility via pharmacological activation of large conductance Ca2+-activated K+ channels. Am J Physiol Cell Physiol 302: C1632-1641, 2012).
Solutions and drugs: Ca^2+-free dissection solution contained (in mM): 80 monosodium glutamate, 55 NaCl, 6 KCl, 10 glucose, 10 HEPES,2 MgCl2, and the pH was adjusted to 7.3 with NaOH. For the functional studies on human DSM contractility, the physiological saline solution had the following composition (in mM): 119 NaCl, 4.7 KCl, 24 NaHCO3, 1.2 KH2PO4, 2.5 CaCl2, 1.2 MgSO4, and 11 D-glucose, aerated with 95% O2-5% CO2 (pH 7.4). Extracellular (bath) solution used for the perforated whole cell patch-clamp experiments contained (in mM): 134 NaCl, 6 KCl, 1 MgCl2, 2 CaCl2, 10 glucose, 10 HEPES, and pH was adjusted to 7.4 with NaOH. The patch-pipette solution for the perforated patch-clamp experiments contained (in mM): 110 potassium aspartate, 30 KCl, 10 NaCl, 1 MgCl2, 10 HEPES, 0.05 EGTA, and pH was adjusted to 7.2 with NaOH. Amphotericin-B stock solution was prepared daily in dimethyl sulfoxide (DMSO) and was added to the pipette solution (200 μg/ml) before the experiment and was replaced every 1-2 h. Extracellular and patch-pipette solutions for single BK channel recordings contained (in mM): 140 KCl, 1.08 MgCl2, 5 EGTA, 10 HEPES, and 3.16 CaCl2, adjusted to pH 7.2 with NaOH (Ca^2+ free concentration was calculated ˜300 nM with WEBMAXC Standard, http://www.stanford.edu/˜cpatton/webmaxcS.htm, Chris Patton). […]
Data analysis and statistics: Clampfit 10.3 (Molecular Device, Union City, Calif.) and Minianalysis software (Synaptosoft, Inc., NJ) were used to analyze the data. Mean values of the last 50 ms pulse of 200 ms depolarization step of at least 5 average files in the absence (control) and in the presence of 17β-estradiol were analyzed to evaluate the effects of 17β-estradiol on steady-state whole cell BK currents. […] Five minutes of at least an 8-10 min stable patch-clamp recording prior to application of 17β-estradiol were analyzed for control data, and the last 5 min of continuous recordings of 10-15 min after application of 17β-estradiol were analyzed to evaluate the effects of 17β-estradiol on RMP or TBKCs. […]

The test system of experiment [5] is human DSM isolated strips. Description: Isometric tension recordings: nerve-evoked (EFS-induced) contractions of DSM isolated strips. The format is cell-based. The settings on record: 17β-estradiol 100 nM; in particular at lower stimulation frequencies (0.5-20.0 Hz); n=7, N=3; P<0.05. How it is done:
as §5, §4

The next experiment has as its system rat DSM isolated strips. To be noted: 17β-estradiol 30 μM; cited from earlier work.
The subject of the next experiment is pig DSM isolated strips. The settings on record: 17β-estradiol 30 μM; cited from earlier work.
[6] abbreviates: 17β-estradiol 100 nM-1 μM, strips pre-incubated with paxilline (1 μM), n=5, N=5, P>0.05.
[7] abbreviates: 17β-estradiol 1 μM, n=8, N=5, P<0.05.

T1 sequence (Q12791 whole entry): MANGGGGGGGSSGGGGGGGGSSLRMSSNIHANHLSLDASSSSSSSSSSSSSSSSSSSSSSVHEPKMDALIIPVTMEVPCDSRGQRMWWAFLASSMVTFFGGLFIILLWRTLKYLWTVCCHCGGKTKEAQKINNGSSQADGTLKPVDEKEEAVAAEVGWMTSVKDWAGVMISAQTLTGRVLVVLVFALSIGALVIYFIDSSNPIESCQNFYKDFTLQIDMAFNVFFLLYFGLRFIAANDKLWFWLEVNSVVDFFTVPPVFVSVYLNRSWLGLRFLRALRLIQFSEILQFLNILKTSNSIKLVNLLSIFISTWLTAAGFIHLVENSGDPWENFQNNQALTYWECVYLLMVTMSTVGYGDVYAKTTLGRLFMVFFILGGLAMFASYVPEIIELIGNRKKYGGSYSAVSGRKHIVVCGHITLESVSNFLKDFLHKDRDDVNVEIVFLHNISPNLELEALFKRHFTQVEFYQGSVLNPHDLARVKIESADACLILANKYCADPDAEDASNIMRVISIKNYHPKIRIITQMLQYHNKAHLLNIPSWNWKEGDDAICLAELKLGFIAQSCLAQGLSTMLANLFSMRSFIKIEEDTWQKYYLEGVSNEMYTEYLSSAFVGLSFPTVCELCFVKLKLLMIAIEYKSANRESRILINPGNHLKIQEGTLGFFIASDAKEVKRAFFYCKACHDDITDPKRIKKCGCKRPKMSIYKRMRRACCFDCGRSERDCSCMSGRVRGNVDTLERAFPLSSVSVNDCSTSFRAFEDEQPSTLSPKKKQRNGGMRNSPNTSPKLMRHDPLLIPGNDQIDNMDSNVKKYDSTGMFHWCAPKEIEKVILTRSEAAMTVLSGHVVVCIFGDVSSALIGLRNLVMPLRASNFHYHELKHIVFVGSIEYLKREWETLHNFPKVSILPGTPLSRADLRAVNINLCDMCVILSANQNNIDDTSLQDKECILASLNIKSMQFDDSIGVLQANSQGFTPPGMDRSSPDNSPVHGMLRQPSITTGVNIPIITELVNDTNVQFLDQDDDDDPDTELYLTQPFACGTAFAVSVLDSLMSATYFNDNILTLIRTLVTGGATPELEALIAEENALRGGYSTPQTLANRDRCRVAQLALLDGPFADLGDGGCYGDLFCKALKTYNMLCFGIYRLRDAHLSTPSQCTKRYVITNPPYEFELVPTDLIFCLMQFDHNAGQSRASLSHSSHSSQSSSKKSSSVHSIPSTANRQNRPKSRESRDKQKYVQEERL
T1 sequence (Q16558 whole entry): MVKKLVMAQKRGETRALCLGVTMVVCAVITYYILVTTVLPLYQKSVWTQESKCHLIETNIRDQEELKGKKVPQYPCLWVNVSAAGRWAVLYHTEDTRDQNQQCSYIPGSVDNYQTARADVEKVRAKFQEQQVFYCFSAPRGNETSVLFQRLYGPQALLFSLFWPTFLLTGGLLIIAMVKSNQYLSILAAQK

Consider `C[C@]12CC[C@@H]3c4ccc(O)cc4CC[C@H]3[C@@H]1CC[C@@H]2O` [17β-estradiol], for which, on BK channels [1] (17β-estradiol 100 nM, n=12, N=8, P<0.05), the “effect on whole cell K+ current density” value was “significantly increased”. Besides, on BK channels [1] (at +80 mV, 17β-estradiol 100 nM, control 33.9±6.5 pA/pF, n=12, N=8, P<0.05), the “whole cell outward K+ currents” value was 44.5±7.8 pA/pF. At BK channels [1] (at +80 mV, both paxilline (1 μM) and 17β-estradiol (100 nM), vs 6.1±1.7 paxilline alone, P>0.05), the BK current amplitude was 6.8±1.8 pA/pF. The “effect on average TBKC amplitude” value at BK channels [2] was “without significantly altering”. The “increase of the frequency of TBKCs” value at BK channels [2] (control taken as 100%, n=8, N=5, P<0.05) was 74.6±37.8%. Moreover, the “single BK channel open probability (NPo)” value on BK channels [3] (Vh=−60 mV, control 0.086±0.030, P<0.05) is listed as 0.137±0.030. In addition, at BK channels [3] (control 11.7±0.7 pA, P>0.05), the “single BK channel current amplitude” value was determined as 11.9±0.5 pA. In addition, the “DSM cell RMP” value in the experiment on human DSM cells (17β-estradiol 100 nM, control −25.7±3.2 mV, n=11, N=9, P<0.05) is on record as −28.9±3.3 mV. The “hyperpolarization of the DSM cell RMP” value in the experiment on human DSM cells (17β-estradiol 100 nM, n=11, N=9, P<0.05) was around 3 mV. Also, in the experiment on human DSM cells (17β-estradiol in the presence of paxilline (1 μM), n=8, N=5, P>0.05), the “DSM cell RMP” value is −21.9±4.4 mV. Besides, in experiment [4] (setting [6]), the “effect on muscle force integral” value is reported as “did not affect” and the “effect on spontaneous phasic contraction amplitude” value is recorded as “did not affect”. For the same compound, in experiment [4] (setting [7]), the “decrease of muscle force integral” value was 44.4±13.2% and the “decrease of spontaneous phasic contraction amplitude” value stood at 53.3±8.9%. For the same compound, the “effect on phasic contraction frequency” value in experiment [4] (17β-estradiol 1 μM, n=8, N=5, P>0.05) is reported as “without significantly changing”. The “effect on EFS-induced contractions” value in experiment [5] is given as “significantly inhibited”. Further, the “effect on pharmacologically-induced and nerve-evoked contractions” value in the experiment on rat DSM isolated strips is “decrease”. The “effect on KCl- and muscarinic receptor-induced contractions” value in the experiment on pig DSM isolated strips was “inhibitory effects”.

As for `CC(C)(O)[C@H]1O[C@H]2CC[C@@]3(C)[C@@](O)(CC[C@H]4Cc5c([nH]c6ccccc56)[C@@]43C)C2=CC1=O` [paxilline], the “DSM cell RMP” value with human DSM cells (paxilline only (1 μM), n=8, N=5) is on record as −22.1±4.7 mV.
